Results from patent US9403813B2, “Azetidine amide derivatives as orexin receptor antagonists” (ACTELION PHARMACEUTICALS LTD, priority 2013, dated 2016).

Key:
human orexin-2 receptor = human orexin-2 receptor (Homo sapiens (Human), UniProt O43614); experiment: Intracellular calcium measurements (FLIPR), antagonism of orexin-A response; type: cell-based; conditions: CHO cells expressing human orexin-2 receptor, 3 nM orexin-A, geometric mean if determined several times, read-out: IC50 OX2
Procedure, shortened: (§1)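 CHO cells expressing human OX1 or OX2 receptor, loaded with fluo-4 AM plus probenecid, preincubated with antagonist 120 min before 3 nM orexin-A challenge. FLIPR calcium peak heights compared with agonist-plus-vehicle response. IC50 possibly normalized to on-plate reference; geometric mean of repeat determinations.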

human orexin-1 receptor = human orexin-1 receptor (Homo sapiens (Human), UniProt O43613); experiment: as above; type: cell-based; conditions: CHO cells expressing human orexin-1 receptor, 3 nM orexin-A, geometric mean if determined several times, read-out: IC50 OX1
Sequence of human orexin-1 receptor (O43613 whole entry): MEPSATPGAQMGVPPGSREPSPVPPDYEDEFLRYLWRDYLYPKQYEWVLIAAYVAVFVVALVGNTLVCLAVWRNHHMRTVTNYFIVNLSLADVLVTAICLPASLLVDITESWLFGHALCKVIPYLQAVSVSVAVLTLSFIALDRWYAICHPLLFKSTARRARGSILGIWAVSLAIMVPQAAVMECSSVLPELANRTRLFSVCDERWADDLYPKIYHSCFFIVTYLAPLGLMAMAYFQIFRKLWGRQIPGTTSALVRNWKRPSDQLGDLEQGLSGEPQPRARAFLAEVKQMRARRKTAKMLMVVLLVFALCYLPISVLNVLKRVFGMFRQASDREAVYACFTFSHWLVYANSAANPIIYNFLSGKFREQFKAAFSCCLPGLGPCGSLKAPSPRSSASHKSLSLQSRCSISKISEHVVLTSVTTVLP
Procedure, shortened: as §1

Sequence of human orexin-2 receptor (O43614 whole entry): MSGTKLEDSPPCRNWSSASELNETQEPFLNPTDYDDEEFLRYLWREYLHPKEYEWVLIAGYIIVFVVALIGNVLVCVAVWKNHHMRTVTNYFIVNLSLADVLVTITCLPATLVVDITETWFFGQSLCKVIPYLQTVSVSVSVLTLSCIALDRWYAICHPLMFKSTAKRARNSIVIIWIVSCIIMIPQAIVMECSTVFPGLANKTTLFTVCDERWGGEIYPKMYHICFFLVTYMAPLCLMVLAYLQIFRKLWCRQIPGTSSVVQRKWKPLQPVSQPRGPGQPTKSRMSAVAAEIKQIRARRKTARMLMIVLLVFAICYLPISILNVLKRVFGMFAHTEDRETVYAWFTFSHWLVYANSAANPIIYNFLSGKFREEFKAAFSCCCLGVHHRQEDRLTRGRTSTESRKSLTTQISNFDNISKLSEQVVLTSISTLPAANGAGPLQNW

Row | Compound | IC50 (human orexin-2 receptor) [nM] | IC50 (human orexin-1 receptor) [nM]
1 | Cc1ccc(C(=O)N2CC[C@H]2c2nc(-c3cccc(F)c3C)no2)c(-n2nccn2)c1 [Example 22, {(S)-2-[3-(3-Fluoro-2-methyl-phenyl)-[1,2,4]oxadiazol-5-yl]-azetidin-1-yl}-(4-methyl-2-[1,2,3]triazol-2-yl-phenyl)-methanone] | 23 | 821
2 | Cc1cccc(-c2oc(C)nc2C(=O)N2CC[C@H]2c2nc(-c3cccc(Cl)c3C)no2)c1 [Example 71, {(S)-2-[3-(3-Chloro-2-methyl-phenyl)-[1,2,4]oxadiazol-5-yl]-azetidin-1-yl}-(2-methyl-5-m-tolyl-oxazol-4-yl)-methanone] | 555 | 693
3 | CCOc1ncccc1-c1nc([C@@H]2CCN2C(=O)c2cc(OC)c(C)cc2-n2nccn2)no1 [Example 92, {(S)-2-[5-(2-Ethoxy-pyridin-3-yl)-[1,2,4]oxadiazol-3-yl]-azetidin-1-yl}-(5-methoxy-4-methyl-2-[1,2,3]triazol-2-yl-phenyl)-methanone] | 1 | 37
4 | Cc1ccc(-n2nccn2)c(C(=O)N2CC[C@H]2c2nc(-c3cccc(Cl)c3C)no2)c1 [Example 7, {(S)-2-[3-(3-Chloro-2-methyl-phenyl)-[1,2,4]oxadiazol-5-yl]-azetidin-1-yl}-(5-methyl-2-[1,2,3]triazol-2-yl-phenyl)-methanone] | 10 | 120
5 | Cc1cc(C(=O)N2CC[C@H]2c2noc(-c3cccc(F)c3C)n2)c(-n2nccn2)cc1C [Example 89, (4,5-Dimethyl-2-[1,2,3]triazol-2-yl-phenyl)-{(S)-2-[5-(3-fluoro-2-methyl-phenyl)-[1,2,4]oxadiazol-3-yl]-azetidin-1-yl}-methanone] | 3 | 82
6 | COc1cc(C(=O)N2CC[C@H]2c2nc(-c3cccc(Cl)c3C)no2)c(-n2nccn2)cc1F [Example 24, {(S)-2-[3-(3-Chloro-2-methyl-phenyl)-[1,2,4]oxadiazol-5-yl]-azetidin-1-yl}-(4-fluoro-5-methoxy-2-[1,2,3]triazol-2-yl-phenyl)-methanone] | 25 | 963
7 | COc1c(Cl)cccc1-c1nnc([C@@H]2CCN2C(=O)c2cc(C)ccc2-n2nccn2)[nH]1 [Example 126, {(S)-2-[5-(3-Chloro-2-methoxy-phenyl)-4H-[1,2,4]triazol-3-yl]-azetidin-1-yl}-(5-methyl-2-[1,2,3]triazol-2-yl-phenyl)-methanone] | 170 | 7230
8 | COc1cc(C(=O)N2CC[C@H]2c2nc(-c3ccccc3OC(F)(F)F)no2)c(-n2nccn2)cc1F [Example 23, (4-Fluoro-5-methoxy-2-[1,2,3]triazol-2-yl-phenyl)-{(S)-2-[3-(2-trifluoromethoxy-phenyl)-[1,2,4]oxadiazol-5-yl]-azetidin-1-yl}-methanone] | 39 | 1420
9 | CCOc1ncccc1-c1noc([C@@H]2CCN2C(=O)c2cc(C)c(C)cc2-n2nccn2)n1 [Example 31, (4,5-Dimethyl-2-[1,2,3]triazol-2-yl-phenyl)-{(S)-2-[3-(2-ethoxy-pyridin-3-yl)-[1,2,4]oxadiazol-5-yl]-azetidin-1-yl}-methanone] | 3 | 68
10 | Cc1c(Cl)cccc1-c1nc([C@@H]2CCN2C(=O)c2ccc(C(F)(F)F)cc2-n2nccn2)no1 [Example 108, {(S)-2-[5-(3-Chloro-2-methyl-phenyl)-[1,2,4]oxadiazol-3-yl]-azetidin-1-yl}-(2-[1,2,3]triazol-2-yl-4-trifluoromethyl-phenyl)-methanone] | 28 | 759
11 | Cc1ccc(-c2sc(C)nc2C(=O)N2CC[C@H]2c2nc(-c3cccc(Cl)c3C)no2)cc1 [Example 62, {(S)-2-[3-(3-Chloro-2-methyl-phenyl)-[1,2,4]oxadiazol-5-yl]-azetidin-1-yl}-(2-methyl-5-p-tolyl-thiazol-4-yl)-methanone] | 170 | 562
12 | Cc1ccc(-c2ccccc2)c(C(=O)N2CC[C@H]2c2nc(-c3ccccc3OC(F)(F)F)no2)c1 [Example 39, (4-Methyl-biphenyl-2-yl)-{(S)-2-[3-(2-trifluoromethoxy-phenyl)-[1,2,4]oxadiazol-5-yl]-azetidin-1-yl}-methanone] | 4 | 75
13 | Cc1ccc(-n2nccn2)c(C(=O)N2CC[C@H]2c2nc(-c3ccccc3Cl)no2)c1 [Example 14, {(S)-2-[3-(2-Chloro-phenyl)-[1,2,4]oxadiazol-5-yl]-azetidin-1-yl}-(5-methyl-2-[1,2,3]triazol-2-yl-phenyl)-methanone] | 40 | 1040
14 | O=C(c1ccc(Cl)cc1-n1nccn1)N1CC[C@H]1c1nc(-c2ccccc2OC(F)(F)F)no1 [Example 77, (4-Chloro-2-[1,2,3]triazol-2-yl-phenyl)-{(S)-2-[3-(2-trifluoromethoxy-phenyl)-[1,2,4]oxadiazol-5-yl]-azetidin-1-yl}-methanone] | 28 | 616

Further molecules by falling IC50 (human orexin-2 receptor), results first:

Row | IC50 (human orexin-2 receptor) [nM] | IC50 (human orexin-1 receptor) [nM] | Compound
15 | 367 | 993 | Cc1c(Cl)cccc1-c1noc([C@@H]2CCN2C(=O)c2ncsc2-c2cccc(Cl)c2)n1 [Example 61, {(S)-2-[3-(3-Chloro-2-methyl-phenyl)-[1,2,4]oxadiazol-5-yl]-azetidin-1-yl}-[5-(3-chloro-phenyl)-thiazol-4-yl]-methanone]
16 | 322 | 9070 | Cc1ccc(C(=O)N2CC[C@H]2c2nnc(-c3ccccc3)[nH]2)c(-n2nccn2)c1 [Example 121, (4-Methyl-2-[1,2,3]triazol-2-yl-phenyl)-[(S)-2-(5-phenyl-4H-[1,2,4]triazol-3-yl)-azetidin-1-yl]-methanone]
17 | 287 | 3820 | Cc1ccc(-n2nccn2)c(C(=O)N2CC[C@H]2c2nc(-c3ccccc3)no2)c1 [Example 36, (5-Methyl-2-[1,2,3]triazol-2-yl-phenyl)-[(S)-2-(3-phenyl-[1,2,4]oxadiazol-5-yl)-azetidin-1-yl]-methanone]
18 | 238 | 5880 | Cc1ccc(-n2nccn2)c(C(=O)N2CC[C@H]2c2nnc(-c3cccc(Cl)c3C)[nH]2)c1 [Example 124, {(S)-2-[5-(3-Chloro-2-methyl-phenyl)-4H-[1,2,4]triazol-3-yl]-azetidin-1-yl}-(5-methyl-2-[1,2,3]triazol-2-yl-phenyl)-methanone]
19 | 115 | 1020 | Cc1cccc(-n2nccn2)c1C(=O)N1CC[C@H]1c1nc(-c2ccccc2OC(F)(F)F)no1 [Example 46, (2-Methyl-6-[1,2,3]triazol-2-yl-phenyl)-{(S)-2-[3-(2-trifluoromethoxy-phenyl)-[1,2,4]oxadiazol-5-yl]-azetidin-1-yl}-methanone]
20 | 49 | 756 | Cc1c(Cl)cccc1-c1noc([C@@H]2CCN2C(=O)c2cc(Cl)ccc2-n2nccn2)n1 [Example 80, {(S)-2-[3-(3-Chloro-2-methyl-phenyl)-[1,2,4]oxadiazol-5-yl]-azetidin-1-yl}-(5-chloro-2-[1,2,3]triazol-2-yl-phenyl)-methanone]
21 | 25 | 1190 | COc1cccc(-c2noc([C@@H]3CCN3C(=O)c3cc(C)ccc3-n3nccn3)n2)c1 [Example 5, {(S)-2-[3-(3-Methoxy-phenyl)-[1,2,4]oxadiazol-5-yl]-azetidin-1-yl}-(5-methyl-2-[1,2,3]triazol-2-yl-phenyl)-methanone]
22 | 9 | 44 | COc1c(F)cccc1-c1noc([C@@H]2CCN2C(=O)c2ccc(C)cc2-n2nccn2)n1 [Example 19, {(S)-2-[3-(3-Fluoro-2-methoxy-phenyl)-[1,2,4]oxadiazol-5-yl]-azetidin-1-yl}-(4-methyl-2-[1,2,3]triazol-2-yl-phenyl)-methanone]
23 | 6 | 578 | COc1cc(C(=O)N2CC[C@H]2c2nc(-c3cccc(Cl)c3C)no2)c(-n2nccn2)cc1Cl [Example 74, (4-Chloro-5-methoxy-2-[1,2,3]triazol-2-yl-phenyl)-{(S)-2-[3-(3-chloro-2-methyl-phenyl)-[1,2,4]oxadiazol-5-yl]-azetidin-1-yl}-methanone]
24 | 5 | 497 | COc1cc(C(=O)N2CC[C@H]2c2nnc(-c3ccccc3OC(F)(F)F)[nH]2)c(-n2nccn2)cc1Cl [Example 131, (4-Chloro-5-methoxy-2-[1,2,3]triazol-2-yl-phenyl)-{(S)-2-[5-(2-trifluoromethoxy-phenyl)-4H-[1,2,4]triazol-3-yl]-azetidin-1-yl}-methanone]
25 | 4 | 193 | COc1cc(C(=O)N2CC[C@H]2c2noc(-c3ccccc3OC(F)(F)F)n2)c(-n2nccn2)cc1C [Example 86, (5-Methoxy-4-methyl-2-[1,2,3]triazol-2-yl-phenyl)-{(S)-2-[5-(2-trifluoromethoxy-phenyl)-[1,2,4]oxadiazol-3-yl]-azetidin-1-yl}-methanone]
26 | 2 | 397 | COc1cc(C(=O)N2CC[C@H]2c2nc(-c3cccc(Cl)c3C)no2)c(-n2nccn2)cc1C [Example 28, {(S)-2-[3-(3-Chloro-2-methyl-phenyl)-[1,2,4]oxadiazol-5-yl]-azetidin-1-yl}-(5-methoxy-4-methyl-2-[1,2,3]triazol-2-yl-phenyl)-methanone]
27 | 2 | 59 | COc1cc(C(=O)N2CC[C@H]2c2noc(-c3cccc(Cl)c3C)n2)c(-n2nccn2)cc1C [Example 103, {(S)-2-[5-(3-Chloro-2-methyl-phenyl)-[1,2,4]oxadiazol-3-yl]-azetidin-1-yl}-(5-methoxy-4-methyl-2-[1,2,3]triazol-2-yl-phenyl)-methanone]
28 | 0.6 | 17 | CCOc1ncccc1-c1nc([C@@H]2CCN2C(=O)c2cc(C)c(C)cc2-n2nccn2)no1 [Example 91, (4,5-Dimethyl-2-[1,2,3]triazol-2-yl-phenyl)-{(S)-2-[5-(2-ethoxy-pyridin-3-yl)-[1,2,4]oxadiazol-3-yl]-azetidin-1-yl}-methanone]
